Assay results as given in ChEMBL document CHEMBL1250543, “Potential application of thymidylate kinase in nucleoside analogue activation in Plasmodium falciparum” (Bioorg Med Chem, 2010).

How the values were obtained:
Plasmodium falciparum [1] = experiment: Antimalarial activity against Plasmodium falciparum 3D7 at 100 uM by SYBR green assay; format: functional; settings: read-out: GI
Plasmodium falciparum [2] = experiment: Antimalarial activity against Plasmodium falciparum 3D7 after 48 hrs by SYBR green assay; format: functional, organism-based; settings: 3D7, 48 h

EC50 (Plasmodium falciparum [2]) [µM] | SMILES | inhibition of growth at 100 µM (Plasmodium falciparum [1]) [%]
> 100 | Cc1cn([C@H]2C[C@H](N=[N+]=[N-])[C@@H](CO)O2)c(=O)[nH]c1=O [ZIDOVUDINE] | 0
67 | CCOC(=O)[C@H](NP(=O)(OC[C@H]1O[C@H](n2cc(C)c(=O)[nH]c2=O)C[C@@H]1N=[N+]=[N-])Oc1ccccc1)C(C)C (stereo partly specified) | 78
66 | CCOC(=O)[C@H](NP(=O)(OC[C@H]1O[C@@H](n2cnc3c(=O)[nH]c(N)nc32)C[C@@H]1N=[N+]=[N-])Oc1ccccc1)C(C)C (stereo partly specified) | 80
> 100 | CCOC(=O)[C@H](NP(=O)(OC[C@@H]1C=C[C@H](n2cc(C)c(=O)[nH]c2=O)O1)Oc1ccccc1)C(C)C (stereo partly specified) | 18
> 100 | Cc1cn([C@@H]2C[C@H](N=[N+]=[N-])[C@@H](CO)O2)c(=O)[nH]c1=O | 0
80 | CCOC(=O)[C@H](NP(=O)(OC[C@H]1O[C@@H](n2cc(C)c(=O)[nH]c2=O)C[C@@H]1N=[N+]=[N-])Oc1ccccc1)C(C)C (stereo partly specified) | 69

SMILES | EC50 (Plasmodium falciparum [2]) [µM] | inhibition of growth at 100 µM (Plasmodium falciparum [1]) [%]
COC(=O)[C@@H](C)NP(=O)(OC[C@@H]1C=C[C@H](n2cc(C)c(=O)[nH]c2=O)O1)Oc1ccccc1 (stereo partly specified) | > 100 | 9
COC(=O)[C@@H](C)NP(=O)(OC[C@H]1O[C@@H](n2cc(C)c(=O)[nH]c2=O)C[C@@H]1N=[N+]=[N-])Oc1ccccc1 (stereo partly specified) | 120 | 35
